In ChEMBL document CHEMBL3046389, “Synthesis and biological evaluation of novel hydroquinone dimethyl ethers as potential anticancer and antimicrobial agents” (2013):
Converted amounts (≈) assume the structure as drawn.

How the values were obtained:
Assay type in all cases: functional
M14 = experiment: Anticancer activity against Homo sapiens (human) M14 cells after 48 hr by SRB assay; details: M14, 48 h
OVCAR-8 [1] = experiment: Anticancer activity against Homo sapiens (human) OVCAR8 cells after 48 hr by SRB assay; details: OVCAR-8, 48 h
Hs-578T = experiment: Anticancer activity against Homo sapiens (human) Hs 578T cells after 48 hr by SRB assay
SK-MEL-2 = experiment: Anticancer activity against Homo sapiens (human) SK-MEL-2 cells after 48 hr by SRB assay; details: SK-MEL-2, 48 h
MDA-MB-468 [2] = experiment: Growth inhibition of Homo sapiens (human) MDA-MB-468 cells at 10 uM after 48 hr by SRB assay; details: MDA-MB-468, 48 h, read-out: GI
LOX IMVI = experiment: Growth inhibition of Homo sapiens (human) LOXIMVI cells at 10 uM after 48 hr by SRB assay; details: read-out: GI
HCC 2998 = experiment: Anticancer activity against Homo sapiens (human) HCC2998 cells after 48 hr by SRB assay; details: HCC 2998, 48 h
SNB-75 = experiment: Growth inhibition of Homo sapiens (human) SNB75 cells at 10 uM after 48 hr by SRB assay; details: SNB-75, 48 h, read-out: GI
A498 = experiment: Anticancer activity against Homo sapiens (human) A498 cells after 48 hr by SRB assay; details: A498, 48 h
CCRF-CEM = experiment: Anticancer activity against Homo sapiens (human) CCRF-CEM cells after 48 hr by SRB assay
SNB-19 = experiment: Anticancer activity against Homo sapiens (human) SNB19 cells after 48 hr by SRB assay; details: SNB-19, 48 h
K562 = experiment: Anticancer activity against Homo sapiens (human) K562 cells after 48 hr by SRB assay; details: K562, 48 h
UO-31 = experiment: Anticancer activity against Homo sapiens (human) UO31 cells after 48 hr by SRB assay; details: UO-31, 48 h
MDA-MB-231 = experiment: Anticancer activity against Homo sapiens (human) MDA-MB-231/ATCC cells after 48 hr by SRB assay; details: MDA-MB-231, 48 h
Pseudomonas aeruginosa = experiment: Antimicrobial activity against Pseudomonas aeruginosa ATCC 10145 after 48 hr by two-fold serial broth dilution method; details: ATCC 10145, 48 h
MDA-MB-435 = experiment: Anticancer activity against Homo sapiens (human) MDA-MB-435 cells after 48 hr by SRB assay; details: MDA-MB-435, 48 h
OVCAR-3 = experiment: Growth inhibition of Homo sapiens (human) OVCAR3 cells at 10 uM after 48 hr by SRB assay; details: OVCAR-3, 48 h, read-out: GI
HOP-62 = experiment: Anticancer activity against Homo sapiens (human) HOP62 cells after 48 hr by SRB assay; details: HOP-62, 48 h
PC-3 = experiment: Anticancer activity against Homo sapiens (human) PC3 cells after 48 hr by SRB assay; details: PC-3, 48 h
HCT-15 = experiment: Anticancer activity against Homo sapiens (human) HCT15 cells after 48 hr by SRB assay; details: HCT-15, 48 h
UACC-62 = experiment: Anticancer activity against Homo sapiens (human) UACC62 cells after 48 hr by SRB assay; details: UACC-62, 48 h
ACHN = experiment: Growth inhibition of Homo sapiens (human) ACHN cells at 10 uM after 48 hr by SRB assay; details: read-out: GI
A549 = experiment: Anticancer activity against Homo sapiens (human) A549/ATCC cells after 48 hr by SRB assay; details: A549, 48 h
NCI/ADR-RES = experiment: Anticancer activity against Homo sapiens (human) NCI/ADR-RES cells after 48 hr by SRB assay
T47D = experiment: Growth inhibition of Homo sapiens (human) T47D cells at 10 uM after 48 hr by SRB assay; details: read-out: GI
MDA-MB-468 [3] = experiment: Anticancer activity against Homo sapiens (human) MDA-MB-468 cells after 48 hr by SRB assay; details: MDA-MB-468, 48 h
HCT-116 [4] = experiment: Growth inhibition of Homo sapiens (human) HCT116 cells at 10 uM after 48 hr by SRB assay; details: HCT-116, 48 h, read-out: GI
OVCAR-8 [5] = experiment: Growth inhibition of Homo sapiens (human) OVCAR8 cells at 10 uM after 48 hr by SRB assay; details: OVCAR-8, 48 h, read-out: GI
HCT-116 [6] = experiment: Anticancer activity against Homo sapiens (human) HCT116 cells after 48 hr by SRB assay; details: HCT-116, 48 h
SK-MEL-5 = experiment: Anticancer activity against Homo sapiens (human) SK-MEL-5 cells after 48 hr by SRB assay; details: SK-MEL-5, 48 h
[7] = read-out: LC50 (the source's name)

Q: What does the source list for COc1ccc(OC)c(/C=C/c2nnc(Nc3ccc(Cl)cc3)o2)c1?
A: GI50 (M14): 20.7 µM; LC50 (M14): > 100 µM; TGI (M14): > 100 µM; GI50 (OVCAR-8 [1]): 4.91 µM; LC50 (OVCAR-8 [1]): 76.4 µM; TGI (OVCAR-8 [1]): 21 µM; GI50 (Hs-578T): 2.71 µM; TGI (Hs-578T): 8.01 µM; CC50 (Hs-578T; [7]): > 100 µM; GI50 (SK-MEL-2): 9.66 µM; TGI (SK-MEL-2): > 100 µM; CC50 (SK-MEL-2; [7]): > 100 µM; inhibition of growth at 10 µM (MDA-MB-468 [2]): 34%; inhibition of growth at 10 µM (LOX IMVI): 32.3%; GI50 (HCC 2998): > 100 µM; TGI (HCC 2998): > 100 µM; CC50 (HCC 2998; [7]): > 100 µM; inhibition of growth at 10 µM (SNB-75): 84.2%; GI50 (A498): 1.87 µM; LC50 (A498): > 100 µM; TGI (A498): 7.76 µM; GI50 (CCRF-CEM): > 100 µM; TGI (CCRF-CEM): > 100 µM; CC50 (CCRF-CEM; [7]): > 100 µM; GI50 (SNB-19): 13.8 µM; TGI (SNB-19): > 100 µM; CC50 (SNB-19; [7]): > 100 µM; GI50 (K562): 92.8 µM; TGI (K562): > 100 µM; CC50 (K562; [7]): > 100 µM; GI50 (UO-31): 3.13 µM; LC50 (50% lethal concentration) (UO-31): 78 µM; TGI (UO-31): 12.6 µM; GI50 (MDA-MB-231): 5.23 µM; TGI (MDA-MB-231): 53.1 µM; CC50 (MDA-MB-231; [7]): > 100 µM; MBC (Pseudomonas aeruginosa): 100 µg/mL (≈ 279 µM); MIC (Pseudomonas aeruginosa): 100 µg/mL (≈ 279 µM); GI50 (MDA-MB-435): 37 µM; TGI (MDA-MB-435): > 100 µM; CC50 (MDA-MB-435; [7]): > 100 µM; inhibition of growth at 10 µM (OVCAR-3): 67.9%; GI50 (HOP-62): 2.71 µM; TGI (HOP-62): 7.68 µM; CC50 (HOP-62; [7]): 38.9 µM; GI50 (PC-3): 13.3 µM; TGI (PC-3): 76 µM; CC50 (PC-3; [7]): > 100 µM; GI50 (HCT-15): 34.1 µM; TGI (HCT-15): > 100 µM; CC50 (HCT-15; [7]): > 100 µM; GI50 (UACC-62): 16.2 µM; LC50 (UACC-62): > 100 µM; TGI (UACC-62): > 100 µM; inhibition of growth at 10 µM (ACHN): 67.4%; GI50 (A549): 3.67 µM; TGI (A549): 17.8 µM; CC50 (A549; [7]): 78.6 µM; GI50 (NCI/ADR-RES): 7.62 µM; LC50 (NCI/ADR-RES): > 100 µM; TGI (NCI/ADR-RES): 98.1 µM; inhibition of growth at 10 µM (T47D): 105%; GI50 (MDA-MB-468 [3]): 16.4 µM; TGI (MDA-MB-468 [3]): > 100 µM; CC50 (MDA-MB-468 [3]; [7]): > 100 µM; inhibition of growth at 10 µM (HCT-116 [4]): 78.1%; inhibition of growth at 10 µM (OVCAR-8 [5]): 33.3%; GI50 (HCT-116 [6]): 2.97 µM; TGI (HCT-116 [6]): 13.1 µM; CC50 (HCT-116 [6]; [7]): > 100 µM; GI50 (SK-MEL-5): 7.17 µM; LC50 (SK-MEL-5): > 100 µM; TGI (SK-MEL-5): > 100 µM
